Source: patent EP1067939B1, “USE OF STEROIDAL ALKALOID DERIVATIVES AS INHIBITORS OF HEDGEHOG PROTEIN SIGNALING PATHWAYS” (The Johns Hopkins University, priority 1998, dated 1999)
Where two headings read alike, the source gives them in different places.

Experiments:
[1] = tested on: primary human lymphoblasts; assay: Cholesterol Biosynthesis Assay (sterol profiles of cultured cells); assay type: cell-based; conditions: five days
[2] = tested on: Shh-N; assay: Intermediate neural plate explant response to exogenous Shh-N protein; assay type: cell-based, chick; conditions: for concentration that inhibits the repression of Pax7 expression by 2 nM Shh-N: 20 hours; for doses at which HNF3β and Isl-1 induction are completely blocked / intermediate levels at which induction of HNF3β is blocked while induction of Isl-1 is maintained or expanded: 25 nM Shh-N
[3] = tested on: rat hepatoma cells; assay: Cholesterol Esterification Assay (esterification of plasma membrane cholesterol); assay type: cell-based
Description: Table 1. […] Table 1. Effects of synthetic and plant-derived compounds on cholesterol homeostasis. […]

[4] = biological target: T1, Shh (Mus musculus, UniProt Q62226); assay: Shh autoprocessing in stably transfected HK293 cells (immunoblot); assay type: cell-based; conditions: added during the 24-hour induction period; doses up to 5-fold higher than those required to completely inhibit Shh signaling
T1 construct: expressed in transfected cells; host or cells: HK293 cells, Ecdysone-Inducible Mammalian Expression System (Invitrogen)
Description: To examine potential effects of these compounds on Shh processing we utilized HK293 cells cultured in lipid-depleted serum and carrying a stable integrated construct for expression of Shh under ecdysone-inducible control (47). Shh protein expression in these cells can be induced by addition of muristerone A, an ecdysone analog.
• 1. M. Hammerschmidt, A. Brook, A. P. McMahon, Trends Genet, 13, 14-21 (1997). • 2. C. Chiang, et al., Nature, 383,407-413 (1996). • 3. Y. Tanabe, T. M. Jessell, Science 274, 1115-1123 (1996). • 4. T. P. Yamaguchi, Curr. Opin. Genet. Dev. 7, 513-518 (1997). • 5. N. Shubin, C. Tabin, S. Carroll, Nature 388, 639-648 (1997). • 6. A. E. Oro, et al., Science 276, 817-821 (1997). • 7. M. M. Cohen, K. K. Sulik, J. Craniofac. Genet. Deve. Biol. 12, 196-244 (1992). • 8. E. Belloni, et al., Nature Genet. 14, 353-356 (1996). • 9. E. Roessler, et al., Nature Genet. 14, 357-360 (1996). • 10. J. A. Porter, et al., Nature 374, 363-366 (1995). • 11. J. A. Porter, K. E. Young, P. A. Beacy, Science 274, 255-259 (1996b). • 12. J. J. Lee, et al., Science 266, 1528-1537 (1994). • 13. J. A. Porter, et al., Cell 86, 21-34 (1996a). • 14. C. Roux, Arch. Franc. Pediatr. 21, 451-464 (1964). • 15. C. Roux, C. R. Soc. Biol. 160, 1353-1357 (1966). • 16. D. B. Dehart, L. Lanoue, G. S. Tinit, K. K. Sulik, Am J. Med. Genet. 68, 328-337 (1997). • 17. M. Kraml, J. F. Bagli, D. Dvornik, Biochem. and Biophysical Res. Com. 15, 455-457 (1964). • 18. J. Avigan, D. Steinberg, H. E. Vroman, M. J. Thompson, E. Mosettig, J. Biol. Chem 235, 3123-3126 (1960). • 19. R. B. Clayton, A. N. Nelson, I. D. Frantz Jr., J. Lipid Res. 4, 166-178 (1963). • 20. J. Aufenanger, J. Pill, K. Stegmeier, F. H. Schmidt, Horm. Metabol. Res. 17, 612-613 (1986). • 21. […] G. Popjak, A. Meenean, E. J. Parish, W. D. Nes, J. Biol. Chem 264,6230-6238 (1989). • 23. H. Yoshikawa, Brain Deve. 13, 115-120 (1991). • 24. R. I. Kelley, et al., Am. J. Of Med. Gen. 66, 478-484 (1996). • 25. G. S. Tint, et al., New England Journal of Medicine 330, 107-113 (1994). • 26. T.E. Willnow, et al., Proc. Natl. Acad. Sci USA 93, 8460-8464 (1996). • 27. S. Stefansson, D. A. Chappell, K. M. Argraves, D. K. Strickland, W. S. Argraves, J. Biol. Chem. 270, 19417-19421 (1995). • 28. W. Binns, L. F. James, J. L. Shupe, G. Everett, Am. J. Vet. Res. 24, 1164-1174 (1963). • 29. R. F. Keeler, W. Binns, Teratology 1, 5-10 (1968). • 30. P. A. Beachy, et al., CSH Symp. Quant. Biol. 62, in press (1997). • 31. E. D. Carstea, et al., Science 277, 228-231 (1997). • 32. S. K. Loftus, et al., Science 277, 232-235 […]. • 33. L. V. Goodrich, L. Milenkovic, K. M. Higgins, M. P. Scott, Science 277, 1109-1113 (1997). • 34. H. Kumagai, K. T. Chun, R. D. Simoni, J. Biol. Chem. 270, 19107-19113 (1995). • 35. G. Gil, J. R. Faust, D. J. Chin, J. L. Goldstien, M. S. Brown, Cell 41, 249-258 (1985). • 36. X. Hua, A. Nohturfft, J. L. Goldstein, M. S. Brown, Cell 87, 415-426 (1996). • 37. M. S. Brown, J. L. Goldstein, Cell 89, 331-340 (1997). • 38. M. M. Bryden, C. Perry, R. F. Keeler, Teratology 8, 18-28 (1973). • 39. M. L. Omnell, F. R. P. Sim, R. F. Keeler, L. C. Harne, K. W. Brown, Teratology 42, 105-119 (1990). • 40. Fertile chick eggs (white leghorn) were placed in a humidified incubator at 37.5° C in a rotating tray for 14 hours. […] The window was taped and the eggs incubated for an additional 4 days. The embryos were dissected in phosphate buffered saline (PBS, pH 7.2).

[5] = tested on: endogenous Shh signaling; assay: Midline neural plate/notochord explant assay of endogenous Shh signaling; assay type: cell-based, chick; conditions: midline explants, two days of culture
[6] = read-out: Percent Inhibition (incorporation of label into cholesteryl ester*) ^3H-Cholesterol
[7] = read-out: Percent Inhibition (incorporation of label into cholesteryl ester*) ^14C-Oleic Acid

T1 sequence (Q62226 25-437): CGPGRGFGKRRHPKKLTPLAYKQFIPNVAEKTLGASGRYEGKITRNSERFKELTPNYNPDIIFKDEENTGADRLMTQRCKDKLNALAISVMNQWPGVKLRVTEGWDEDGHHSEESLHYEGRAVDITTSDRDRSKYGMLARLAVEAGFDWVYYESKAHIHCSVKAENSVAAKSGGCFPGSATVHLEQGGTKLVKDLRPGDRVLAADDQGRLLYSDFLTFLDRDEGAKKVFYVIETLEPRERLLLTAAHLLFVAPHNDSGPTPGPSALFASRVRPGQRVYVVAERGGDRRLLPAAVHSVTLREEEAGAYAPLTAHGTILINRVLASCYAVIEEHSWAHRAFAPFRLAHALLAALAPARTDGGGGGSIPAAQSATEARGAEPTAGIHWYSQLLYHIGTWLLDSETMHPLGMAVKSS

Row | Compound | Percent Sterols: Cholesterol ([1]; 0.25 µM) [%] | Percent Sterols: b. 7 Dehydrodesmosterol ([1]; 0.25 µM) [%] | Percent Sterols: c. Cholesta-7,24-dien-3ß-ol ([1]; 0.25 µM) [%] | Percent Sterols: e. Cholesta-8(14)-en-3ß-ol ([1]; 0.25 µM) [%] | Total Sterols (µg/mg protein) ([1]; 0.25 µM) | Percent Sterols: 2. C28 Sterols ([1]; 0.5 µM) [%] | Percent Sterols: 3. C29 Sterols ([1]; 0.5 µM) [%] | Percent Sterols: Cholesterol ([1]; 0.5 µM) [%] | Percent Sterols: b. 7 Dehydrodesmosterol ([1]; 0.5 µM) [%] | Percent Sterols: c. Cholesta-7,24-dien-3ß-ol ([1]; 0.5 µM) [%] | Percent Sterols: e. Cholesta-8(14)-en-3ß-ol ([1]; 0.5 µM) [%] | Total Sterols (µg/mg protein) ([1]; 0.5 µM) | Percent Sterols: 2. C28 Sterols ([1]; 1.0 µM) [%] | Percent Sterols: 3. C29 Sterols ([1]; 1.0 µM) [%] | Percent Sterols: Cholesterol ([1]; 1.0 µM) [%] | Percent Sterols: b. 7 Dehydrodesmosterol ([1]; 1.0 µM) [%] | Percent Sterols: c. Cholesta-7,24-dien-3ß-ol ([1]; 1.0 µM) [%] | Percent Sterols: e. Cholesta-8(14)-en-3ß-ol ([1]; 1.0 µM) [%] | Total Sterols (µg/mg protein) ([1]; 1.0 µM) | concentration that inhibits the repression of Pax7 expression by 2 nM Shh-N [2] [µM] | also measured
1 | CCN(CC)CCOc1ccc(C(O)(Cc2ccc(Cl)cc2)c2ccc(C)cc2)cc1 (stereo not drawn) [Triparanol, triparanol] | 56 | 6.0 | 3.1 | 9.1 | 4.1 | 2.6 | 8.1 | 45 | 4.1 | 2.4 | 8.7 | 5.1 | 1.5 | 5.5 | 51 | 2.9 | 2.6 | 7.3 | 3.1 | 0.25 | Percent Sterols: 2. C28 Sterols ([1]; 0.25 µM): 4.4%; Percent Sterols: 3. C29 Sterols ([1]; 0.25 µM): 7.8%; Percent Sterols: a. Desmosterol ([1]; 0.25 µM): 9.1%; Percent Sterols: d. Zymosterol ([1]; 0.25 µM): 9.3%; Percent Sterols: a. Desmosterol ([1]; 0.5 µM): 8.7%; Percent Sterols: d. Zymosterol ([1]; 0.5 µM): 27%; Percent Sterols: a. Desmosterol ([1]; 1.0 µM): 6.7%; Percent Sterols: d. Zymosterol ([1]; 1.0 µM): 23%; doses at which HNF3β and Isl-1 induction are completely blocked [2]: 0.5 µM; intermediate levels at which induction of HNF3β is blocked while induction of Isl-1 is maintained or expanded [2]: 0.25 µM; inhibition at 2.5 µM [3, 6]: 49%; inhibition at 2.5 µM [3, 7]: 54%; inhibition at 5 µM [3, 6]: 57%; inhibition at 5 µM [3, 7]: 65%; inhibition at 10 µM [3, 6]: 79%; inhibition at 10 µM [3, 7]: 81%; Shh-Np production and accumulation of unprocessed precursor [4]: did not diminish Shh-Np production nor induce accumulation of unprocessed precursor; Higher doses that fully inhibit HNF3β and Isl-1 induction [5]: 1.0 µM; Intermediate doses that block induction of HNF3β while permitting induction of Isl-1 [5]: 0.25 µM
2 | Clc1ccccc1CNC[C@H]1CC[C@H](CNCc2ccccc2Cl)CC1 [AY9944, AY 9944] | 30 | 3.5 | 1.8 | 9.7 | 7.6 | 1.1 | 3.3 | 33 | 3.0 | 1.9 | 14 | 8.3 | 2.6 | 4.6 | 34 | 1.9 | 1.6 | 20 | 8.3 | 0.5 | Percent Sterols: f. 7 Dehydrocholesterol ([1]; 0.25 µM): 50%; Percent Sterols: g. Lathosterol ([1]; 0.25 µM): 6.2%; Percent Sterols: f. 7 Dehydrocholesterol ([1]; 0.5 µM): 36%; Percent Sterols: g. Lathosterol ([1]; 0.5 µM): 7.3%; Percent Sterols: f. 7 Dehydrocholesterol ([1]; 1.0 µM): 16%; Percent Sterols: g. Lathosterol ([1]; 1.0 µM): 7.9%; Percent Sterols: h. C27 Sterol 1 (mw 384) ([1]; 1.0 µM): 5.3%; Percent Sterols: i. C27 Sterol 2 (mw 382) ([1]; 1.0 µM): 6.0%; doses at which HNF3β and Isl-1 induction are completely blocked [2]: 2.0 µM; intermediate levels at which induction of HNF3β is blocked while induction of Isl-1 is maintained or expanded [2]: 1.0 µM; inhibition at 2.5 µM [3, 6]: 39%; inhibition at 2.5 µM [3, 7]: 20%; inhibition at 5 µM [3, 6]: 56%; inhibition at 5 µM [3, 7]: 35%; inhibition at 10 µM [3, 6]: 68%; inhibition at 10 µM [3, 7]: 51%; Shh-Np production and accumulation of unprocessed precursor [4]: did not diminish Shh-Np production nor induce accumulation of unprocessed precursor; Higher doses that fully inhibit HNF3β and Isl-1 induction [5]: 4.0 µM; Intermediate doses that block induction of HNF3β while permitting induction of Isl-1 [5]: 0.5 µM
